Experimental findings from patent publication US8680268B2, “Sulfonic acid derivative compound and novel naphthalic acid derivative compound” (Adeka Corporation, priority 2010, dated 2014) are described below.

Data set [1] in a line: Evaluation of solubility in various organic solvents at 25° C. Format: physicochemical. The conditions noted are these: concentration giving a stable solution.
Description: The case in which dissolution occurred at more than 20 mass % is indicated by 20<while the case of less than 0.5 mass % is indicated by 0.5>.
The nature of data set [2]: Measurement of UV absorption spectra of methanol solutions. Format: physicochemical. The conditions noted are these: 1×10^−5 mol/liter; for Maximum absorption (nm), first absorption peak / Maximum absorption (nm), second absorption peak: 200 nm to 500 nm; for Maximum absorption (nm), first absorption peak / Absorbance at first absorption peak: (short wavelength); for Maximum absorption (nm), second absorption peak / Absorbance at second absorption peak: long wavelength. The procedure:
Solutions of the compounds listed in Table 2 among the compounds yielded in the above described examples and the comparative compounds 1-3 represented by the formulae described below in methanol with 1×10^−5 mol/liter were prepared to measure the UV absorption spectra of the solutions at 200 nm to 500 nm.

Each structure is given as a SMILES string.

`O=C1c2cccc3cccc(c23)C(=O)N1OS(=O)(=O)C(F)(F)F` [Comparative compound 2]: in data set [1], the Solubility in cyclohexanone stood at 7.1 mass %, the “Solubility in propylene glycol monomethyl ether acetate” value is 1.9 mass % and the “Solubility in γ-butyrolactone” value stood at 4.8 mass %. Besides, in data set [2], the “Maximum absorption (nm), first absorption peak” value is 226 nm; the “Maximum absorption (nm), second absorption peak” value was determined as 336 nm; the “Absorbance at first absorption peak” value was 0.389; the “Absorbance at second absorption peak” value turned out to be 0.103.

Regarding `CCCCSc1ccc2c3c(cccc13)C(=O)N(OS(=O)(=O)CC13CCC(CC1=O)C3(C)C)C2=O` (stereo not shown) [Compound S-28], in data set [1], the Solubility in cyclohexanone is recorded as 14.0 mass %, the “Solubility in propylene glycol monomethyl ether acetate” value is listed as 2.8 mass % and the “Solubility in γ-butyrolactone” value came to 17.8 mass %.

Take `CCCCCCCCSc1ccc2c3c(cccc13)C(=O)N(OS(=O)(=O)CC13CCC(CC1=O)C3(C)C)C2=O` (stereo not shown) [Compound S-29]: in data set [1], the Solubility in cyclohexanone is above 20 mass %, the “Solubility in propylene glycol monomethyl ether acetate” value is recorded as 9.0 mass % and the “Solubility in γ-butyrolactone” value was 20< mass %. Further, in data set [2], the “Maximum absorption (nm), first absorption peak” value is given as 210 nm; the “Maximum absorption (nm), second absorption peak” value worked out at 400 nm; the “Absorbance at first absorption peak” value came to 0.299; the “Absorbance at second absorption peak” value is 0.158.

Turning to `CC1(C)C2CCC1(CS(=O)(=O)ON1C(=O)c3cccc4cccc(c34)C1=O)C(=O)C2` (stereo not shown) [compound 1], in data set [1], the Solubility in cyclohexanone is 6.1 mass %, the “Solubility in propylene glycol monomethyl ether acetate” value is listed as 1.1 mass % and the “Solubility in γ-butyrolactone” value came out at 12.6 mass %. In data set [2], the “Maximum absorption (nm), first absorption peak” value amounted to 231 nm; the “Maximum absorption (nm), second absorption peak” value stood at 335 nm; the “Absorbance at first absorption peak” value stood at 0.413; the “Absorbance at second absorption peak” value came to 0.133.

Regarding `Cc1ccc(S(=O)(=O)ON2C(=O)c3cccc4cccc(c34)C2=O)cc1` [compound 3], in data set [1], the Solubility in cyclohexanone is on record as 1.0 mass %, the Solubility in propylene glycol monomethyl ether acetate is below 0.5 mass % and the “Solubility in γ-butyrolactone” value is reported as 1.9 mass %. In addition, in data set [2], the “Maximum absorption (nm), first absorption peak” value stood at 229 nm; the “Maximum absorption (nm), second absorption peak” value worked out at 335 nm; the “Absorbance at first absorption peak” value came out at 0.513; the “Absorbance at second absorption peak” value was found to be 0.117.
